# Laboratory results from paper PMC7822874, “Chemoprotective antimalarials identified through quantitative high-throughput screening of Plasmodium blood and liver stage parasites” (Scientific Reports, 2021).
# Test: in vitro
# Conditions: human, hepg2-a16-cd81egfp cells
# Further: reference of the scale not given here.
row,SMILES,viability at 3 µM [%]
1,Oc1ccc(Br)cc1CN1CCN(c2ccccc2)CC1 [MLS000106609],99.8
2,C[n+]1c2ccccc2nc2ccc(NCCO)cc21.[O-][Cl+3]([O-])([O-])[O-] [MLS001164888],97.2

# Same assay, conditions: human, hepg2-a16-cd81egfp cells, % viability
row,SMILES,viability at 3 µM [%]
1,O=C(Nc1ccc(C2=NCCN2)cc1)c1ccc(C(=O)Nc2ccc(C3=NCCN3)cc2)c(Cl)c1 [MLS000737368],90
2,C=C(C)CSc1nc2sc3c(c2c(=O)n1-c1ccccc1)CCN(C)C3 [MLS001173616],98.7
3,COc1cc(Cl)c(NC2=CC(=O)C(=O)c3ccccc32)c(OC)c1 [MLS001360325],65.1
4,COc1cc2nc(Nc3ccc(F)cc3)nc(N)c2cc1OC [NCGC00107353],92.7
5,CN(C)CCCn1cnc2c(c1=N)C(c1ccccc1)c1ccc3ccccc3c1O2 (stereo not shown) [MLS001216375],106
6,COc1cccc(C2C3=C(N=c4sc(=Cc5ccccc5O)c(=O)n42)c2ccccc2CC3)c1OC (stereo not shown) [MLS000580951],92.9
7,CN1C2CCC1/C(=C/c1ccccn1)C(=O)/C2=C\c1ccccn1 [MLS000702810],83
8,CCOC(=O)c1c(CN(C)C)oc2cc(CN(C)C)c(O)c(CSc3ccccc3)c12 [MLS000038262],104
9,COc1ccc(-n2nc3c(c2NC(=O)CCl)CSC3)cc1 [MLS001066697],98.9
10,COc1cc(OC)c(NC2=CC(=O)C(=O)c3ccccc32)cc1Cl [MLS001198657],62
11,CCCCN(C(=O)c1cccc(S(=O)(=O)N(C)c2ccc(C)cc2)c1)c1c(N)n(CCCC)c(=O)[nH]c1=O [MLS001128188],91.7
12,Cc1ccc(C(=O)Nc2nc(-c3ccccn3)cs2)cc1S(=O)(=O)N1CCOCC1 [MLS002157637],58.9
13,O=S1(=O)N(CCN2CC=C(c3c[nH]c4cc(F)ccc34)CC2)c2cccc3c2N1CCC3 [NCGC00015600],76.3
14,COc1ccc2nc(C)cc(NCc3cccc(C(F)(F)F)c3)c2c1 [MLS001174340],95.4
15,OCC[n+]1ccc(/C=C/c2c[nH]c3ccccc23)cc1 [MLS000585200],90.7
16,O[C@H]1[C@H]2c3cc4c(cc3CN3CCC(=C[C@@H]1O)[C@@H]23)OCO4 [NCGC00262562],83.5
17,COc1cc(O)c(C(CCN2CCCC(C)C2)c2ccc3c(c2)OCO3)c(OC)c1 (stereo not shown) [MLS000879506],97.8
18,CC(C)(C)OC(=O)N1CCC(CC2CC(c3ccccc3)=NO2)(C(=O)NCc2ccccc2)CC1 (stereo not shown) [MLS002174287],99.3
19,CN(C)Cc1c(O)ccc2oc(Cc3ccccc3)cc12 [MLS000039159],89.6
20,Cc1cc(C)c(C)c(S(=O)(=O)NCc2ccc(C(=O)N3CCCCC3)cc2)c1C [MLS000547926],90.2
21,CCN1CCN(Cc2ccc(NC(=O)c3ccc(C)c(NC(=O)c4cc(-c5ccc(Br)cc5)[nH]n4)c3)cc2C(F)(F)F)CC1 [MLS000911560],99
22,O=C(CCc1ccccc1)NC(c1cccs1)c1cc(Cl)c2cccnc2c1O (stereo not shown) [MLS000703748],54
23,O[C@@H]1[C@@H](O)C=C2CCN3Cc4cc5c(cc4[C@H]1C23)OCO5 (stereo partly shown) [MLS002153955],77.4
24,FC(F)(F)c1cccc(Nc2nc3nonc3nc2Nc2ccc(Cl)cc2)c1 [NCGC00100377],47.1
25,C/C(=N\NC(=O)c1ccccc1OCc1ccc(F)cc1)c1ccccn1 [MLS002162875],82
26,CCOc1ccccc1NC(C)C(=O)Nc1cc(C(F)(F)F)ccc1N1CCOCC1 (stereo not shown) [MLS000336343],99.6
27,CCN(CC)c1ccc(NC(=O)COc2ccccc2C#N)cc1S(=O)(=O)Nc1ccccc1OC [MLS000339599],97.1

row,SMILES,viability at 3 µM [%]
1,CC[C@]1(c2ccccc2OC)ON(c2ccccc2C(F)(F)F)C1=O [MLS002206607],102
2,Cc1nn2c(c1-c1ccccc1-c1ccccc1)N(CCC(C)C)CCC2 [NCGC00420437],15.3
3,CCOC(=O)c1nc2cc3n(c(CC(C)C)c-2c1C)CC(C)=C3C [MLS000594428],105
4,CCCC(=O)NC(c1ccccc1OC)c1ccc2cccnc2c1O (stereo not shown) [MLS000715345],55.4
5,Clc1ccc2c(N/N=C/c3cccc(Br)c3)ccnc2c1 [MLS000336198],87.2
6,CCCN(C(=O)C(=O)Nc1ccc2nc3n(c(=O)c2c1)CCCCC3)c1ccc(OCC)cc1 [NCGC00114456],93.7
7,CC1CCN(c2ccc(C(=O)NCc3ccco3)cc2[N+](=O)[O-])CC1 [MLS000389854],91.2
8,CNc1ccc2oc(C[C@@H]3OC4(CC[C@@H]3C)O[C@H]([C@@H](C)C(=O)c3ccc[nH]3)[C@H](C)C[C@H]4C)nc2c1C(=O)O (stereo partly shown) [NCGC00161647],12.5
9,C=CCNC(=S)N1CCN(c2ccc([N+](=O)[O-])cc2)CC1 [MLS000581348],99.6
10,c1ccc2sc(Sc3ncnc4sccc34)nc2c1 [MLS000334432],96.9
11,Cc1ccc(/C=N/NC(=O)c2nnn(-c3nonc3N)c2-c2ccc3c(c2)OCO3)s1 [MLS001142659],90.4
12,CC(C)CCN(CCC(C)C)CC(O)Cn1c2ccccc2c(=O)c2ccccc21 (stereo not shown) [MLS001030199],88.6
13,CCC1(OC(=O)CN)C(=O)OCc2c1cc1n(c2=O)Cc2cc3ccccc3nc2-1 (stereo not shown) [MLS000766263],29.3
14,CCNc1nc(C#N)nc2c1ncn2-c1cc(F)cc(F)c1 [MLS002471787],99.9
15,C=C(C)COc1ccc(-c2n[nH]cc2-c2ccc(OC)c(OC)c2)c(O)c1 [MLS000084580],42.4
16,CC(C)Nc1ccc(Nc2ccnc3cc4ccccc4cc23)cc1 [MLS000766754],83.9
17,CN([C@@H](Cc1ccc(OS(=O)(=O)c2cccc3cnccc23)cc1)C(=O)N1CCN(c2ccccc2)CC1)S(=O)(=O)c1cccc2cnccc12 [NCGC00162398],95.6
18,O=C(Nc1ccc2c(N3CCOCC3)ncnc2c1)c1cccc(Br)c1 [NCGC00425561],49.3
19,Oc1c(C(Nc2nccs2)c2ccc(C(F)(F)F)cc2)ccc2cccnc12 (stereo not shown) [MLS000774842],43.8
20,Cc1cc(C)n(-c2nc(NC(C)(C)C)nc(NC(C)(C)C)n2)n1 [MLS000109787],106
21,COc1cc2ccccc2cc1C(=O)N1CCCC(C(F)(F)F)C1 (stereo not shown) [MLS002180647],86
22,Cc1cccc(Nc2cc(C)c3c(O)cccc3n2)c1C [MLS000586980],88.1
23,Oc1ccc(CN2CCCCC2)nc1-c1ccccc1 [MLS000031925],99.7
24,Cc1nn2c(c1-c1ccccc1-c1ccccc1)N(CC1CC1)CCC2 [NCGC00420435],49.8
25,Cc1ccc(Nc2cc(C)nc(NCc3ccccc3)n2)cc1 [MLS000574704],80.6
26,COc1ccc(Nc2cc(O)c3ncccc3c2)cc1 [NCGC00183797],69
27,CCN(CC)C1=NC(=[N+](CC)CC)c2ccccc21.[O-][Cl+3]([O-])([O-])O [MLS000565348],83.4

row,SMILES,viability at 3 µM [%]
1,CCc1c(C)c(C#N)c2nc3ccccc3n2c1NCC1CCCO1 (stereo not shown) [MLS000556827],99.5
2,CCCCCCSc1ccc([C@H]2N[C@@](Cc3ccccc3)(C(=O)OC)[C@H]3C(=O)N(CC)C(=O)[C@@H]23)cc1 [MLS001362744],91.8
3,Cc1ccc(-[n+]2c(-c3ccc(Cl)cc3)cn3c2CCC3)cc1 [MLS000780005],90.4
4,Clc1ncnc2scc(-c3ccc(Br)cc3)c12 [MLS000591637],99.5
5,Cc1ccnc2nc(C(=O)Nc3cc(Cl)ccc3N3CCOCC3)nn12 [MLS000567033],98.5
6,CCOC(=O)c1c(NC(=O)C[n+]2ccc(N(C)C)cc2)sc(C)c1C [MLS000710762],65.1
7,COc1cc(O)c(C(CCN2CCCCC2)c2ccc(N(C)C)cc2)c(OC)c1 (stereo not shown) [MLS000879496],92.4
8,Cc1ccc(-c2c(C(=O)N/N=C/c3cccc(Cl)c3)nnn2-c2nonc2N)cc1 [MLS001139410],92.2
9,O[C@H]1[C@H](NCC2CCCCC2)[C@H]2CO[C@H](O2)[C@@H]1N1CCC(Cc2ccccc2)CC1 [NCGC00394729],99.2
10,COc1cc(C(=O)OCC(=O)N2CCCCC2C)cc(NC(=O)c2cccs2)c1OC (stereo not shown) [MLS001003405],97.3
11,CC(C)c1ccc(CC(=O)N2CCCc3ncc(C(=O)Nc4cccnc4)cc32)cc1 [NCGC00420003],45.1
12,Oc1ccccc1Nc1nc(NCc2ccccc2)c2ccccc2n1 [MLS000693415],90.9
13,COc1cccc(NC(=O)CN(C)C(=O)c2ccc(-c3cccc(C(F)(F)F)c3)o2)c1 [MLS001071804],90.3
14,O=C(Nc1ccc(N2CCN(c3ncccc3C(F)(F)F)CC2)nc1)c1cccs1 [MLS000862045],92
15,Cc1cc(O)c(CN2CCN(S(=O)(=O)c3cccs3)CC2)cc1C(C)C [MLS002157185],92.3
16,COc1ccc2c(c1)C=C([C@@H]1C[C@H]3CN(c4ccccc4)C(=O)[C@]34CCCN14)CO2 [MLS000734809],95.7
17,CNc1ccc2oc(C[C@H]3O[C@@]4(CC[C@H]3C)O[C@H]([C@H](C)C(=O)c3ccc[nH]3)[C@H](C)C[C@H]4C)nc2c1C(=O)O [MLS001056783],19.2
18,COc1cc(NS(C)(=O)=O)ccc1Nc1c2ccccc2nc2ccccc12 [MLS002153376],84.3
19,COc1cc2nc(Nc3cccc(F)c3)nc(N)c2cc1OC [NCGC00107351],101
20,CC(C)c1ccccc1OCC(O)CN(CC(O)COc1cccc2ccccc12)C(C)C (stereo not shown) [MLS001179995],100
21,CCOC(=O)c1c(CN(C)C)n(-c2ccc(C)cc2)c2cc(Br)c(O)cc12 [MLS000705141],97.3
22,OCCCNc1cc(-c2ccnc(Nc3cccc(Cl)c3)n2)ccn1 [NCGC00346940],8.46
23,CC(=O)Nc1ccc(Nc2cc(C)nc(Nc3ccc(NC(C)=O)cc3)n2)cc1 [MLS001359830],93.2
24,OC(c1ccc(Cl)cc1)C(CN1CCOCC1)c1ccccc1 (stereo not shown) [MLS001173582],99.6
25,O=[S+]([O-])(c1ccc(Cl)cc1)N1CCN(C(=S)Nc2ccc(F)c(Cl)c2)CC1 [NCGC00345140],85.6
26,Cc1cc(N2CCC(C)CC2)nc(-n2nc(C)cc2C)n1 [MLS000109839],98.6
